Results from paper PMC2784992 (Nature chemical biology, 2009).

Test system: Plasmodium falciparum lines, progeny, field isolates and transfected parasites
Settings: 0.8 µM verapamil with DHMS

COc1ccc(CCN(C)CCCC(C#N)(c2ccc(OC)c(OC)c2)C(C)C)cc1OC (stereo not shown) [verapamil]
effect on parasite response to 1: did not have any effect
